Values quoted from earlier work in patent publication US10729766B2 (priority 2013, dated 2020).

Experiments:
[1] = mice; single bolus low dose administration

## O=P1(N(CCCl)CCCl)NCCCO1 (stereo not shown) [Cyclophosphamide, N,N-bis(2-chloroethyl)-1,3,2-oxazaphosphinan-2-amine 2-oxide]
human, in vivo, po
  bioavailability, oral versus parenteral administration: little difference in bioavailability
Varies between patients
  peak plasma levels of the parent: 3 to 11 h
[1]
  time of effects returning to normal: 7 to 10 days
  time to nadir of effects after administration: ≤ 4 days
